This is an account of results in BindingDB's records for doi:10.1021/jm8003587 (Tsukuba Research Institute, 2008).

The target of the assay is T1, Neuropeptide Y receptor type 5 (Homo sapiens, UniProt Q15761).
T1 sequence (Q15761 whole entry): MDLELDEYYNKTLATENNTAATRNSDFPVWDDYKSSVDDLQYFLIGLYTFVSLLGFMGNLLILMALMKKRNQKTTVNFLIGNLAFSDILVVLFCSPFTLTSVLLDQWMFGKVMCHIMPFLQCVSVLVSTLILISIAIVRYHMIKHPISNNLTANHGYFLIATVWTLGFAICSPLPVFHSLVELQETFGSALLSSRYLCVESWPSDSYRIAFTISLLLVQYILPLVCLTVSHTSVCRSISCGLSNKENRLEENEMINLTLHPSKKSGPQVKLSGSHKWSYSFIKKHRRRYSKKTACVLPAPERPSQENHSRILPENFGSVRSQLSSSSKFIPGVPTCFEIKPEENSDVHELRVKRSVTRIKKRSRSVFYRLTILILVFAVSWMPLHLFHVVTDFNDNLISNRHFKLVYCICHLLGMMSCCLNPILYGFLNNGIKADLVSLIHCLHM
In words: Displacement of [125I]PYY from human recombinant neuropeptide Y5 receptor expressed in thymidine kinase deficient […] cells. (Loss of bound radioactivity is the signal in a displacement assay; it reports binding, not function.)

Broadly, the pKi is −log10 of the Ki, conventionally taken in molar units.

pKi: −log10 of the molar value. Some results are limits rather than exact numbers.

On to `COc1cccc2c1C(C1C(=O)CC(C)(C)CC1=O)C1=C(CC(C)(C)CC1=O)O2` (stereo unspecified) [9-(2-Hydroxy-4,4-dimethyl-6-oxocyclohexyl)-8-methoxy-3,3-dimethyl-2,3,4,9-tetrahydro-1H-xanthen-1-one], for which the pKi was < 6.00.
